Measured values reported in ChEMBL document CHEMBL1909046, “DrugMatrix in vitro pharmacology data”.
Where a SMILES comes first, the peptide text is derived from it. Bridges are numbered along the chain shown (N, C = ends). [ ]: non-standard residue; d: D form. The star is where a group is joined. Ileψ(thiazoline)Cys = CC[C@H](C)[C@H](N)C1=N[C@H](C(=O)*)CS1; dOrn = NCCC[C@@H](N)C(=O)O

Tests used:
[1] = DRUGMATRIX: Purinergic P2X radioligand binding (ligand: [3H] alpha, beta-Methylene-ATP); format: cell membranes, Oryctolagus cuniculus, New Zealand albino, Urinary bladder, Membrane; conditions: Not Active = under 50% inhibition at 10 µM
Cathepsin G = target: T1, Cathepsin G (Homo sapiens, UniProt P08311); format: tissue-based; conditions: neutrophil;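 also: inhibition of Cathepsin G enzyme activity, tested on an AMC-conjugated peptide substrate; in other assays of this panel Not Active means under 50% inhibition at 10 µM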
T1 sequence (P08311 whole entry): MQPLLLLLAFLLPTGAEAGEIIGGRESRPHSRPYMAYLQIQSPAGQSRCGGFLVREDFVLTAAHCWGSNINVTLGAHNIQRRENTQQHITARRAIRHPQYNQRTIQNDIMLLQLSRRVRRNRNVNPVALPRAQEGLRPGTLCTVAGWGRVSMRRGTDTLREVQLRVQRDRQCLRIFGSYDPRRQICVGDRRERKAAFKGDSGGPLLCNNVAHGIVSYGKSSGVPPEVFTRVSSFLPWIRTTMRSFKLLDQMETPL

Mu-type opioid receptor = Mu-type opioid receptor (Homo sapiens, UniProt P35372); assay: DRUGMATRIX: Opiate mu (OP3, MOP) radioligand binding (ligand: [3H] Diprenorphine); format: cell membranes, CHO-K1, Membrane; conditions: cho-k1; Not Active = under 50% inhibition at 10 µM
Mu-type opioid receptor, sequence (P35372 whole entry): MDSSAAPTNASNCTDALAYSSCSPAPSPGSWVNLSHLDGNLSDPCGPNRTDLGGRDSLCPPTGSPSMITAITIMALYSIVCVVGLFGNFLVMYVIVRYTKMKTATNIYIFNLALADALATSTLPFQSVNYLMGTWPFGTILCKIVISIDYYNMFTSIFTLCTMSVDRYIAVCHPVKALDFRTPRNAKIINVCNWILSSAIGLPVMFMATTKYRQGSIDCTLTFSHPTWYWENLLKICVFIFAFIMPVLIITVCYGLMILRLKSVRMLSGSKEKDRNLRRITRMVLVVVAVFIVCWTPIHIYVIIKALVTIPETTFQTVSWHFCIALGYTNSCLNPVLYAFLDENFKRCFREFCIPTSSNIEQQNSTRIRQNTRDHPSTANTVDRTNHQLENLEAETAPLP

[2] = DRUGMATRIX: Sigma2 radioligand binding (ligand: [3H] Ifenprodil); format: cell membranes, Rattus norvegicus, Wistar, Brain, Membrane; conditions: Not Active = under 50% inhibition at 10 µM
[3] = target: Tyrosine-protein kinase Fyn (Homo sapiens, UniProt P06241); assay: biochemical; format: cell-based, Insect cells; conditions: insect cells;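 also: enzymatic inhibition of Fyn kinase activity measured with Poly(Glu:Tyr) as the phosphorylation substrate; in other assays of this panel Not Active means under 50% inhibition at 10 µM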
Tyrosine-protein kinase Fyn, sequence (P06241 whole entry): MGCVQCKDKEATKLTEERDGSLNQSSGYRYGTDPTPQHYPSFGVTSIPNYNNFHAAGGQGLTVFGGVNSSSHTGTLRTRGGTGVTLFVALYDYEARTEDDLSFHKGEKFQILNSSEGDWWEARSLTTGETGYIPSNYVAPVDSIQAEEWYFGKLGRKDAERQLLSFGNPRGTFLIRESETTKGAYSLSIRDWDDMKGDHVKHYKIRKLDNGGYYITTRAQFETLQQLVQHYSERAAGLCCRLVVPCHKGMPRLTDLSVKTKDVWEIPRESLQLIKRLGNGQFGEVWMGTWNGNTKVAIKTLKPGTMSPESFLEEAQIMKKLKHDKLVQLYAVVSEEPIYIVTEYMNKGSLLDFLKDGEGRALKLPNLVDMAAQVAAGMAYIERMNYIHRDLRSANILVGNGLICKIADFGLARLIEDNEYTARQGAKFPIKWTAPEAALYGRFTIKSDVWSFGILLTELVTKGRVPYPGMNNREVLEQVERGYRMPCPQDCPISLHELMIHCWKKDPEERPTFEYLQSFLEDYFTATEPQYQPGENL

Caspase-1 = target: T2, Caspase-1 (Homo sapiens, UniProt P29466); set-up: species or system Escherichia coli;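 also: Caspase-1 enzyme inhibition assay with a peptide substrate; in other assays of this panel Not Active means under 50% inhibition at 10 µM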
T2 sequence (P29466 whole entry): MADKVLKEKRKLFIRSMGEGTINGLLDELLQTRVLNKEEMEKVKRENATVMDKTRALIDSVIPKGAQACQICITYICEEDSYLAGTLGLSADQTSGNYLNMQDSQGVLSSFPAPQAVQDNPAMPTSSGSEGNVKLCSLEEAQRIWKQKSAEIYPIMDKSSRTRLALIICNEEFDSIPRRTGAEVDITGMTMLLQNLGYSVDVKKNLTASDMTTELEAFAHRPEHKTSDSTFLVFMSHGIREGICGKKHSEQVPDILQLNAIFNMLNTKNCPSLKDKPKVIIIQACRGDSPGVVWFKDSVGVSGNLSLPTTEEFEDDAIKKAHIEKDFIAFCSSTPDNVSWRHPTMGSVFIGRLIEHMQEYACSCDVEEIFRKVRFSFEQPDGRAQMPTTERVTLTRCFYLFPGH

[4] = target: T3, 5-hydroxytryptamine receptor 2C (Homo sapiens, UniProt P28335); assay: DRUGMATRIX: Serotonin (5-Hydroxytryptamine) 5-HT2C radioligand binding (ligand: [3H] Mesulergine); format: cell membranes, CHO-K1, Membrane; conditions: cho-k1; Not Active = under 50% inhibition at 10 µM
T3 sequence (P28335 whole entry): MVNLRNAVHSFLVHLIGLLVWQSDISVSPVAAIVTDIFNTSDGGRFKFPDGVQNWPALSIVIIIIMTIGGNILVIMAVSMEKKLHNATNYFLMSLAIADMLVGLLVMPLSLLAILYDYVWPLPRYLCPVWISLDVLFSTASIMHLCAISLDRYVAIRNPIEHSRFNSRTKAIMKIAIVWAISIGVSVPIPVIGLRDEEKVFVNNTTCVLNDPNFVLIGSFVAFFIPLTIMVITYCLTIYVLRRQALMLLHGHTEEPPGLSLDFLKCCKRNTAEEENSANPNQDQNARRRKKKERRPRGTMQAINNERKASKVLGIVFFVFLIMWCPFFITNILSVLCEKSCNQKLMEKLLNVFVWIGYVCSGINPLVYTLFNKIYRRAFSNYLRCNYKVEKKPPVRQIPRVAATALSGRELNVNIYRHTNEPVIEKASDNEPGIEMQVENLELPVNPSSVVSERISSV

[5] = DRUGMATRIX: beta-Lactamase enzyme inhibition (substrate: Nitrocefin); set-up: species or system Bacillus cereus; conditions: Not Active = under 50% inhibition at 10 µM
[6] = target: Beta-1 adrenergic receptor (Homo sapiens, UniProt P08588); assay: DRUGMATRIX: Adrenergic beta1 radioligand binding (ligand: [125I] Cyanopindolol); format: cell membranes, CHO-K1, Membrane; conditions: cho-k1; Not Active = under 50% inhibition at 10 µM
Beta-1 adrenergic receptor, sequence (P08588 whole entry): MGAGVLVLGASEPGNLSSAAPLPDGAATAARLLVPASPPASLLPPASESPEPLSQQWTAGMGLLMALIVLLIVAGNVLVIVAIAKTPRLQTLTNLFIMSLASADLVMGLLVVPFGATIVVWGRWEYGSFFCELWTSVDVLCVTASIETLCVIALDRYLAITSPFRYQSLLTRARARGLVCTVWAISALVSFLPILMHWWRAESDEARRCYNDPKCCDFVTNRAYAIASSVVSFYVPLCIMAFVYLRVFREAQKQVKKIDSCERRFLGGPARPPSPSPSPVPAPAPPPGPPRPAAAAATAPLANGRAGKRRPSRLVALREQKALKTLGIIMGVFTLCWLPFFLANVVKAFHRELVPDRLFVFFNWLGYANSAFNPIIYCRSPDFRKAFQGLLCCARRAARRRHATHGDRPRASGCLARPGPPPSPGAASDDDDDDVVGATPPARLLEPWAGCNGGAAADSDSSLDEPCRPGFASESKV

D(4) dopamine receptor = target: T4, D(4) dopamine receptor (Homo sapiens, UniProt P21917); assay: DRUGMATRIX: Dopamine D4.2 radioligand binding (ligand: [3H] Spiperone); format: cell membranes, CHO-K1, Membrane; conditions: cho-k1; Not Active = under 50% inhibition at 10 µM
T4 sequence (P21917 whole entry): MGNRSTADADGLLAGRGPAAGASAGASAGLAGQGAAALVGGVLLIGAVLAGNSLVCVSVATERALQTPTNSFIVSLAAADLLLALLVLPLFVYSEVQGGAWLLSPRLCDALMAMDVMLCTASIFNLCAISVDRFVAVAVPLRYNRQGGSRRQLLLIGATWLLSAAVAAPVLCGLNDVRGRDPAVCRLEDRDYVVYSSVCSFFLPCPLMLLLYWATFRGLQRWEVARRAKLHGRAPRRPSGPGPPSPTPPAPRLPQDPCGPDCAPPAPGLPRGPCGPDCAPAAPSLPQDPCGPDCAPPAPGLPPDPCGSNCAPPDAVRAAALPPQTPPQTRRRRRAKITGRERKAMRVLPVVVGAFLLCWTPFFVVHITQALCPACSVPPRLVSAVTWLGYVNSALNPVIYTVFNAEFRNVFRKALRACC

[7] = target: T5, Cysteinyl leukotriene receptor 1 (Homo sapiens, UniProt Q9Y271); format: cell membranes, CHO-K1, Membrane; conditions: cho-k1; also: in other assays of this panel Not Active means under 50% inhibition at 10 µM
T5 sequence (Q9Y271 whole entry): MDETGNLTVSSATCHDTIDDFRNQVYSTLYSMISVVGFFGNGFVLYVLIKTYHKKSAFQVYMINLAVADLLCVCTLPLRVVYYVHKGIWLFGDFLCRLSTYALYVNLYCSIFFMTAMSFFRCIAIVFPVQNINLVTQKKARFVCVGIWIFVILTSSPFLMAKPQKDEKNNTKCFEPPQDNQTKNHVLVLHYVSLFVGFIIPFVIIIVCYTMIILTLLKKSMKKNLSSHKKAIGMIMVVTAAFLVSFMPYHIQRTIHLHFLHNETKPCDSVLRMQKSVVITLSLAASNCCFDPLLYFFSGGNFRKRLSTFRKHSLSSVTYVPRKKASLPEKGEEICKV

Melanocortin receptor 4 = Melanocortin receptor 4 (Homo sapiens, UniProt P32245); format: cell membranes, Membrane; conditions: hek293; also: in other assays of this panel Not Active means under 50% inhibition at 10 µM
Melanocortin receptor 4, sequence (P32245 whole entry): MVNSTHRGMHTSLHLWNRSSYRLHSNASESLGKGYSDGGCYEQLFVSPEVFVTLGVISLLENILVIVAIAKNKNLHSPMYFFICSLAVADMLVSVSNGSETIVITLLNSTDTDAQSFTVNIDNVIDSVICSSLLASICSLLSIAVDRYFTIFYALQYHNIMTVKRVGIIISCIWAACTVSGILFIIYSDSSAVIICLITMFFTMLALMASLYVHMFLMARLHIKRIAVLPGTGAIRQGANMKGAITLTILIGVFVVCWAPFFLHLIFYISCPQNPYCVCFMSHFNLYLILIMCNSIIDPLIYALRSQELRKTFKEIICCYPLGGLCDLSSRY

[8] = DRUGMATRIX: Leukotriene, BLT (LTB4) radioligand binding (ligand: [3H]LTB4); format: cell membranes, Membrane; conditions: u-937; Not Active = under 50% inhibition at 10 µM
Melanocortin receptor 5 = Melanocortin receptor 5 (Homo sapiens, UniProt P33032); format: cell membranes, HEK293, Membrane; conditions: hek293; also: in other assays of this panel Not Active means under 50% inhibition at 10 µM
Melanocortin receptor 5, sequence (P33032 whole entry): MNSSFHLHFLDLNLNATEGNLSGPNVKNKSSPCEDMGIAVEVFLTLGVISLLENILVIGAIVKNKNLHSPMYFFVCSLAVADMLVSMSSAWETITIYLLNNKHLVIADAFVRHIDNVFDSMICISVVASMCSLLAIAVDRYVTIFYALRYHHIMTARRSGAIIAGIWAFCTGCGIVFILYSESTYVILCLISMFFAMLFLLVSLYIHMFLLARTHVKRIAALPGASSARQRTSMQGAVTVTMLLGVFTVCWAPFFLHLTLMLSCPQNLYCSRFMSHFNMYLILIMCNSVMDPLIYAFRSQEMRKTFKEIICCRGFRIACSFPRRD

[9] = target: Epidermal growth factor receptor (Homo sapiens, UniProt P00533); assay: DRUGMATRIX: Protein Tyrosine Kinase, EGF Receptor enzyme inhibition (substrate: Poly(Glu:Tyr)); format: cell-based, Insect cells; conditions: insect cells; Not Active = under 50% inhibition at 10 µM
Epidermal growth factor receptor, sequence (P00533 whole entry): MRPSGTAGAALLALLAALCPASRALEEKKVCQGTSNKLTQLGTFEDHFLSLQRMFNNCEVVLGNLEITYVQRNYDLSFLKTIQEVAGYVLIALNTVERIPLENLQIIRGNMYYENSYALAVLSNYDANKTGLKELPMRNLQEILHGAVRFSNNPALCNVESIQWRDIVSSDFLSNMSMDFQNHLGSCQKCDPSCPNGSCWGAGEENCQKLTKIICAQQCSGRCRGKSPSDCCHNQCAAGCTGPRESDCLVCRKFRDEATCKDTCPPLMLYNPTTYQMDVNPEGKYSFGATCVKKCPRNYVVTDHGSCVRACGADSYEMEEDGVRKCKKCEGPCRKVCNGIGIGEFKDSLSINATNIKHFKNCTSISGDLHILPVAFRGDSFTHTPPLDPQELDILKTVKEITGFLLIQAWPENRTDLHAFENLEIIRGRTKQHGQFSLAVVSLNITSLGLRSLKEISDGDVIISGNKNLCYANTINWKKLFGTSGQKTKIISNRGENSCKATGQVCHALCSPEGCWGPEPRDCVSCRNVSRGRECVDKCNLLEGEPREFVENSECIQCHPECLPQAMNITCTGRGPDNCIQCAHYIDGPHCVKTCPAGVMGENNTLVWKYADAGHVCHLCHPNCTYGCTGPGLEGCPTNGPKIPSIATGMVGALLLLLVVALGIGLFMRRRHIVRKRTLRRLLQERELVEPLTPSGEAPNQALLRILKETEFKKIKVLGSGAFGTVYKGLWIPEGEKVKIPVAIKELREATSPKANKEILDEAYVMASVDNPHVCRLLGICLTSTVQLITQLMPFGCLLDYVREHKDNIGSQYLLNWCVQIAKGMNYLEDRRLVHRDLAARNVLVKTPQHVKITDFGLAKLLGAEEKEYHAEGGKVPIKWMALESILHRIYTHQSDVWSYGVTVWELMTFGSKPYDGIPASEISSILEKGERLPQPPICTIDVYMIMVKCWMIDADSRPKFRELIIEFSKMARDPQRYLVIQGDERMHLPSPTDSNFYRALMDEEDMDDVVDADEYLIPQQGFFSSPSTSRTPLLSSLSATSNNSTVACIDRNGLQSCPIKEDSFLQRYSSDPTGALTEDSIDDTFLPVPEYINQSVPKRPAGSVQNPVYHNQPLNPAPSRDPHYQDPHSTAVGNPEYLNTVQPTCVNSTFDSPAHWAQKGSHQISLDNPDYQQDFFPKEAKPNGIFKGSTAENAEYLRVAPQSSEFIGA

[10] = target: 5-hydroxytryptamine receptor 1B (Rattus norvegicus, UniProt P28564); format: cell membranes, Wistar, Cerebral cortex, Membrane; also: in other assays of this panel Not Active means under 50% inhibition at 10 µM
5-hydroxytryptamine receptor 1B, sequence (P28564 whole entry): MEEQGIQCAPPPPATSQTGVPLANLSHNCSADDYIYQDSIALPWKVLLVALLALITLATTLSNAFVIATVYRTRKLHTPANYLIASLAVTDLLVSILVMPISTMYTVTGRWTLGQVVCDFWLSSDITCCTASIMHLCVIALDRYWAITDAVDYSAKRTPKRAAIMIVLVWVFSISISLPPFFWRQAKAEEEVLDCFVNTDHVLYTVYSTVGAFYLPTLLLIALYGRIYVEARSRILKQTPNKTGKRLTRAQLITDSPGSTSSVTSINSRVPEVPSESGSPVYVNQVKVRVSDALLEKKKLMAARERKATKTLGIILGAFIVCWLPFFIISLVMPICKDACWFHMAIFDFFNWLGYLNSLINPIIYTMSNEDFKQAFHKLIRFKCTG

CC[C@H](C)[C@H](N)C1=N[C@H](C(=O)N[C@@H](CC(C)C)C(=O)N[C@H](CCC(=O)O)C(=O)N[C@H](C(=O)N[C@H]2CCCCNC(=O)[C@H](CC(N)=O)NC(=O)[C@@H](CC(=O)O)NC(=O)[C@H](Cc3cnc[nH]3)NC(=O)[C@@H](Cc3ccccc3)NC(=O)[C@H]([C@@H](C)CC)NC(=O)[C@@H](CCCN)NC2=O)[C@@H](C)CC)CS1 [BACITRACIN] ({Ileψ(thiazoline)Cys}-L[dE]IK[dOrn]I[dF]H[dD]N; lactam 4-C)
Not Active: IC50 [1] | Ki [1] | IC50 (Cathepsin G) | IC50 (Mu-type opioid receptor) | IC50 [2] | Ki [2] | IC50 [3] | IC50 (Caspase-1) | IC50 [4] | IC50 [5] | Ki [5] | IC50 [6] | IC50 (D(4) dopamine receptor) | IC50 [7] | IC50 (Melanocortin receptor 4) | IC50 [8] | Ki [8] | IC50 (Melanocortin receptor 5)

COC(=O)[C@H](c1ccccc1Cl)N1CCc2sccc2C1 [CLOPIDOGREL]
Not Active: IC50 [1] | Ki [1] | IC50 (Cathepsin G) | IC50 (Mu-type opioid receptor) | IC50 [9] | IC50 [2] | Ki [2] | IC50 [3] | IC50 (Caspase-1) | IC50 [4] | IC50 [5] | Ki [5] | IC50 [10] | IC50 (D(4) dopamine receptor) | IC50 [7] | IC50 (Melanocortin receptor 4) | IC50 [8] | Ki [8] | IC50 (Melanocortin receptor 5)

CC(C)NC[C@H](O)COc1cccc2[nH]ccc12
Not Active: IC50 [1] | Ki [1] | IC50 (Cathepsin G) | IC50 (Mu-type opioid receptor) | IC50 [9] | IC50 [2] | Ki [2] | IC50 [3] | IC50 (Caspase-1) | IC50 [4] | IC50 [5] | Ki [5] | IC50 [10] | IC50 (D(4) dopamine receptor) | IC50 [7] | IC50 (Melanocortin receptor 4) | IC50 [8] | Ki [8] | IC50 (Melanocortin receptor 5)

N=C(N)NCCCCNC(=N)N.O=S(=O)(O)O [ARCAINE SULFATE]
Not Active: IC50 [1] | Ki [1] | IC50 (Cathepsin G) | IC50 (Mu-type opioid receptor) | IC50 [9] | IC50 [2] | Ki [2] | IC50 [3] | IC50 (Caspase-1) | IC50 [4] | IC50 [5] | Ki [5] | IC50 [10] | IC50 (D(4) dopamine receptor) | IC50 [7] | IC50 (Melanocortin receptor 4) | IC50 [8] | Ki [8] | IC50 (Melanocortin receptor 5)

C=C(C)[C@@H]1[C@H]2OC(=O)[C@@H]1[C@]1(O)C[C@H]3O[C@]34C(=O)O[C@H]2[C@]14C [PICROTOXININ]
Not Active: IC50 [1] | Ki [1] | IC50 (Cathepsin G) | IC50 [9] | IC50 [2] | Ki [2] | IC50 [3] | IC50 (Caspase-1) | IC50 [4] | IC50 [5] | Ki [5] | IC50 [6] | IC50 [10] | IC50 (D(4) dopamine receptor) | IC50 [7] | IC50 (Melanocortin receptor 4) | IC50 [8] | Ki [8] | IC50 (Melanocortin receptor 5)
